{"source": "the kinase profiling compilation of Christmann-Franck et al. (2016)", "test_in_all_cases": "KINOMEscan competition binding", "conditions_in_all_cases": "compound 0.1 µM", "key": {"[1]": {"tested_on": "ABL1 (human), P00519 [F317L]"}, "[2]": {"molecular_target": "ABL2 (human) (UniProt P42684)", "sequence (P42684 whole entry, looked up)": "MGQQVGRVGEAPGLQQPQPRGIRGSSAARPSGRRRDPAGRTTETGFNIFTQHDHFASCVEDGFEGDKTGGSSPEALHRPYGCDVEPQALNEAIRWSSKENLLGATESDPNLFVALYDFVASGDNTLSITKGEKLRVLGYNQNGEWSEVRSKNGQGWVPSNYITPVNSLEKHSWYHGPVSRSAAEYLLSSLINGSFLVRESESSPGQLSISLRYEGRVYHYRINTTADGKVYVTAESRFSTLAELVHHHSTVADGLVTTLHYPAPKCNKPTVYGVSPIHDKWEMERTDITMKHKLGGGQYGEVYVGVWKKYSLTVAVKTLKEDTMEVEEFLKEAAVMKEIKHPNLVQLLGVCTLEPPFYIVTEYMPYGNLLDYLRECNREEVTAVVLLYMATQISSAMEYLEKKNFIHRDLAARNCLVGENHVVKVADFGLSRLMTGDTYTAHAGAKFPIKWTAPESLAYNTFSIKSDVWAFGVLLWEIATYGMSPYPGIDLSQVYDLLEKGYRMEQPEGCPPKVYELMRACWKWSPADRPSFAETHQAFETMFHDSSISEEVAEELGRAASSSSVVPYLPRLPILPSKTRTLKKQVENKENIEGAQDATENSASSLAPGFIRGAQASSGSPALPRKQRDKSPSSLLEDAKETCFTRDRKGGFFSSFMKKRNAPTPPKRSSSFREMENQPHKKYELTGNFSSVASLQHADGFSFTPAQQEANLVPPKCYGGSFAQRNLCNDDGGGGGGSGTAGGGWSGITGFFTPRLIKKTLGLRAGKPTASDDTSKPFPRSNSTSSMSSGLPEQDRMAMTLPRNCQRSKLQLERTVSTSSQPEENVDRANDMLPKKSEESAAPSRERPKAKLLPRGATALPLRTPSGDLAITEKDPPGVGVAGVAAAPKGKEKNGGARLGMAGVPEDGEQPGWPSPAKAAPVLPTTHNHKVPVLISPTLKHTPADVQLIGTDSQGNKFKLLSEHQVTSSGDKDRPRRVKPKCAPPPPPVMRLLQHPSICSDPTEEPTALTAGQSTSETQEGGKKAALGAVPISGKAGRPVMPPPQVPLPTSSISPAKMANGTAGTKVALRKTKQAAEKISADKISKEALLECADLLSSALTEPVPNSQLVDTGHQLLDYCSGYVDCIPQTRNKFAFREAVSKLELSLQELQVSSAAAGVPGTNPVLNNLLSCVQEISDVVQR"}, "[3]": {"molecular_target": "AXL (human) (UniProt P30530)", "sequence (P30530 whole entry, looked up)": "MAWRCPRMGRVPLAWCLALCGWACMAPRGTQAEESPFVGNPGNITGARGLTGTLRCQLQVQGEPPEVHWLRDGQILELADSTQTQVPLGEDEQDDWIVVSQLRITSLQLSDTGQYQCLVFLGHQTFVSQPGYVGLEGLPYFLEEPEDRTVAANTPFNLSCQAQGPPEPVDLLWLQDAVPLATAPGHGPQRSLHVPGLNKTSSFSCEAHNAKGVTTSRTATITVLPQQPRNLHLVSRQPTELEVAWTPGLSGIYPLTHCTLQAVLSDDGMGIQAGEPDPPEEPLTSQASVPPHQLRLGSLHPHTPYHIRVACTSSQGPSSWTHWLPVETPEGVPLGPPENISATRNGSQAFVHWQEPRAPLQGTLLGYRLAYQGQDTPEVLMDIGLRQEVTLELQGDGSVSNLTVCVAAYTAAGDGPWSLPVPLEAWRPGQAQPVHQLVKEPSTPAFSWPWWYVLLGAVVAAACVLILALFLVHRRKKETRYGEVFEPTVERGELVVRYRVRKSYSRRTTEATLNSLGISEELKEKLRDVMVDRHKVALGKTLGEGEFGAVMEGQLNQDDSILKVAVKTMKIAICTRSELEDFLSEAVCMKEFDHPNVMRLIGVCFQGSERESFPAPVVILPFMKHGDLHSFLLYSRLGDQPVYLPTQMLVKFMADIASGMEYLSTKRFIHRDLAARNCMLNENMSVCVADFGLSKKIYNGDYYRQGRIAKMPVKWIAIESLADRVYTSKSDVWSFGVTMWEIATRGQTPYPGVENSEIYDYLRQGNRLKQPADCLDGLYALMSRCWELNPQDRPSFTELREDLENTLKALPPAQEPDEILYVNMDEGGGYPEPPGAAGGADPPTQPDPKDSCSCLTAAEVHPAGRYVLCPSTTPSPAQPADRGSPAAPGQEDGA"}, "[4]": {"molecular_target": "BMPR1B (human) (UniProt O00238)"}, "[5]": {"molecular_target": "CDK4 CCND1 (human) (UniProt P11802+P24385)", "sequence (P11802 whole entry, looked up)": "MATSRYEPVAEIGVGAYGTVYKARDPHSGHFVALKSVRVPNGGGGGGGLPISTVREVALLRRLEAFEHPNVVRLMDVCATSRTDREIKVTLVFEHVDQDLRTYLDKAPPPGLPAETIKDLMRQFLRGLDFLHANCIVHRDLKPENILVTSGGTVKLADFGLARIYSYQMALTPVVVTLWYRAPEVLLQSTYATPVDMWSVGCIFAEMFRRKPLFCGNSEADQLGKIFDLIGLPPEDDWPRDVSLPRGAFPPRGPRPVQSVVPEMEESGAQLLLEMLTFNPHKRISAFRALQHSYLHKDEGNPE", "sequence (P24385 whole entry, looked up)": "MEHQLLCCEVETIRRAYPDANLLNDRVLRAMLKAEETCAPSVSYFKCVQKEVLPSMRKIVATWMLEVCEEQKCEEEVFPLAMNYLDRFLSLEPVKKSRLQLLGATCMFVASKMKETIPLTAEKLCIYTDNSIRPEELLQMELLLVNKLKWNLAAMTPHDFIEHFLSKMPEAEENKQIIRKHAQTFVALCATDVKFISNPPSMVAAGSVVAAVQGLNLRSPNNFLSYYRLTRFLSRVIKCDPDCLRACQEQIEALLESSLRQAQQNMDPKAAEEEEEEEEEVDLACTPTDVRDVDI"}, "[6]": {"molecular_target": "CDK7 (human) (UniProt P50613)", "sequence (P50613 whole entry, looked up)": "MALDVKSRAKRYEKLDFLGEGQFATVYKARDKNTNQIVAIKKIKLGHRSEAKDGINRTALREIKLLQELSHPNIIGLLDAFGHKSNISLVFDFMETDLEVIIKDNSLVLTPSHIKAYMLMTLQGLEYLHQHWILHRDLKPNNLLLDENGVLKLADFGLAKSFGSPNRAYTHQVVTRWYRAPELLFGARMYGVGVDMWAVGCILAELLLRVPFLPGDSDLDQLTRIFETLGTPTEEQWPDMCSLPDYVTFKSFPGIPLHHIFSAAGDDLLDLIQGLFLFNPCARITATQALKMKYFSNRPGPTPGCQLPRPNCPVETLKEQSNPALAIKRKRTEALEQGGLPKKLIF"}, "[7]": {"molecular_target": "CLK3 (human) (UniProt P49761)"}, "[8]": {"molecular_target": "CSNK1E (human) (UniProt P49674)"}, "[9]": {"molecular_target": "DAPK3 (human) (UniProt O43293)", "sequence (O43293 whole entry, looked up)": "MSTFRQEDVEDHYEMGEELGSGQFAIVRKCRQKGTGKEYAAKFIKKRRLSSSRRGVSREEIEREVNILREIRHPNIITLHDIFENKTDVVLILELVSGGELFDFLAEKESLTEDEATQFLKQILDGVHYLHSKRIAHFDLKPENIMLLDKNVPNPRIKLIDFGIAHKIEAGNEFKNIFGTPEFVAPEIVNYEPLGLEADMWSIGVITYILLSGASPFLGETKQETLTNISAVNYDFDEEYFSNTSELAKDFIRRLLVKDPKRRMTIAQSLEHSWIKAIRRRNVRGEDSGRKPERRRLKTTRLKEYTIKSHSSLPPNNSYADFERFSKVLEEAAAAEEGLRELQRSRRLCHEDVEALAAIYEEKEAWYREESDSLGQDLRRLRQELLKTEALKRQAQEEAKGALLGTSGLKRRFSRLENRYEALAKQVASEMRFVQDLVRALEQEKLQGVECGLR"}, "[10]": {"tested_on": "EGFR (human), P00533 [G719C]"}, "[11]": {"tested_on": "EGFR (human), P00533 [L858R]"}, "[12]": {"molecular_target": "EIF2AK1 (human) (UniProt Q9BQI3)"}, "[13]": {"molecular_target": "EPHA6 (human) (UniProt Q9UF33)"}, "[14]": {"molecular_target": "FGR (human) (UniProt P09769)"}, "[15]": {"molecular_target": "GRK1 (human) (UniProt Q15835)"}, "[16]": {"molecular_target": "GRK7 (human) (UniProt Q8WTQ7)"}, "[17]": {"molecular_target": "IRAK1 (human) (UniProt P51617)"}, "[18]": {"molecular_target": "IRAK3 (human) (UniProt Q9Y616)"}, "[19]": {"molecular_target": "MAP2K4 (human) (UniProt P45985)"}, "[20]": {"molecular_target": "MAP3K12 (human) (UniProt Q12852)"}, "[21]": {"molecular_target": "MAP3K13 (human) (UniProt O43283)"}, "[22]": {"molecular_target": "MAP3K14 (human) (UniProt Q99558)"}, "[23]": {"molecular_target": "MAP3K4 (human) (UniProt Q9Y6R4)"}, "[24]": {"molecular_target": "MAP4K4 (human) (UniProt O95819)"}, "[25]": {"molecular_target": "MAP4K5 (human) (UniProt Q9Y4K4)"}, "[26]": {"molecular_target": "MST4 (human) (UniProt Q9P289)"}, "[27]": {"molecular_target": "PIK3CA (human) (UniProt P42336)", "sequence (P42336 whole entry, looked up)": "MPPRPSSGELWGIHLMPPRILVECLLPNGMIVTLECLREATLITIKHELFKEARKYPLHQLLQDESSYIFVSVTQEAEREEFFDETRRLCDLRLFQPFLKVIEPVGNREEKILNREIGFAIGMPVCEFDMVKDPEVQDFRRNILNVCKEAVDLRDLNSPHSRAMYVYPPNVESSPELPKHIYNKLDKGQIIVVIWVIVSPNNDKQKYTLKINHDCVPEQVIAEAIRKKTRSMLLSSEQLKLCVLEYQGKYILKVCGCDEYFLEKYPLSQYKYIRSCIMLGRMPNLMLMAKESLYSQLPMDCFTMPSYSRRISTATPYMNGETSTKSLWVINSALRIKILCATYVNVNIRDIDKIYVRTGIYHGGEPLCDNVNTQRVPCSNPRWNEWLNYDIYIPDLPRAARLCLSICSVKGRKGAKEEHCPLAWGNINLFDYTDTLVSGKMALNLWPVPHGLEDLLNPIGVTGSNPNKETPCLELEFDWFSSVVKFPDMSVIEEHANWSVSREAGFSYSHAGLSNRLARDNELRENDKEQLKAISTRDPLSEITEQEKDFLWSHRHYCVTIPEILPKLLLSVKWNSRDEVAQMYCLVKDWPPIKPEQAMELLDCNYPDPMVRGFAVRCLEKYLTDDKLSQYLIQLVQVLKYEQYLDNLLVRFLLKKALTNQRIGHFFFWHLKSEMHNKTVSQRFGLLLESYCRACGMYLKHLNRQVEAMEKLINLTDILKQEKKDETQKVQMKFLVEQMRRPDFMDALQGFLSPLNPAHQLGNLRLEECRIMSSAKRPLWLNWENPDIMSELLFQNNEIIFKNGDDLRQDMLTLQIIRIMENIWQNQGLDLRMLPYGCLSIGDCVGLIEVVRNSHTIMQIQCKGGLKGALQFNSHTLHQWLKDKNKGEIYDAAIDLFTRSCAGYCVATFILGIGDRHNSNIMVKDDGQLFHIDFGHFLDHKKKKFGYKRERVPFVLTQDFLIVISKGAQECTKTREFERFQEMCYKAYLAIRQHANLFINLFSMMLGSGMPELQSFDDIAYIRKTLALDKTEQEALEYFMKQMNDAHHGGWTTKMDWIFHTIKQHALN"}, "[28]": {"tested_on": "PIK3CA (human), P42336 [E545K]", "sequence (P42336 whole entry E545K, looked up)": "as the sequence (P42336 whole entry, looked up) above, with E545K counted along it"}, "[29]": {"tested_on": "PIK3CA (human), P42336 [H1047Y]", "sequence (P42336 whole entry H1047Y, looked up)": "as the sequence (P42336 whole entry, looked up) above, with H1047Y counted along it"}, "[30]": {"tested_on": "PIK3CA (human), P42336 [I800L]", "sequence (P42336 whole entry I800L, looked up)": "as the sequence (P42336 whole entry, looked up) above, with I800L counted along it"}, "[31]": {"molecular_target": "PIM2 (human) (UniProt Q9P1W9)"}, "[32]": {"molecular_target": "PLK3 (human) (UniProt Q9H4B4)"}, "[33]": {"molecular_target": "SGK110 (human) (UniProt P0C264)", "sequence (P0C264 whole entry, looked up)": "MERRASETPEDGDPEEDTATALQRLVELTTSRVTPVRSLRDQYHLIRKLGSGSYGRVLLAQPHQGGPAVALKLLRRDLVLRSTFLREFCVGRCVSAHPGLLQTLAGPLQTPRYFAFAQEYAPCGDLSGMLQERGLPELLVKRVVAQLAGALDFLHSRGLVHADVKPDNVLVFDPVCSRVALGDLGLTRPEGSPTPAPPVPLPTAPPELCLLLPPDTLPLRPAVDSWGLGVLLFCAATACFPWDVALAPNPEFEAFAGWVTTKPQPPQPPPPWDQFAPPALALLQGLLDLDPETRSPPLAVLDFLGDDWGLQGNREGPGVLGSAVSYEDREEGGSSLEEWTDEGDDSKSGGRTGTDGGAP"}, "[34]": {"molecular_target": "SLK (human) (UniProt Q9H2G2)"}, "[35]": {"molecular_target": "STK32C (human) (UniProt Q86UX6)"}, "[36]": {"molecular_target": "STK33 (human) (UniProt Q9BYT3)"}, "[37]": {"molecular_target": "TLK2 (human) (UniProt Q86UE8)"}, "[38]": {"molecular_target": "TNK1 (human) (UniProt Q13470)"}, "[39]": {"molecular_target": "VRK2 (human) (UniProt Q86Y07)"}, "[40]": {"molecular_target": "WNK1 (human) (UniProt Q9H4A3)"}}}
{"smiles": "CCc1ccc(C(=O)Nc2cc(CN3CCN(C)CC3)cc(C(F)(F)F)c2)cc1C#Cc1cnc2ccnn2c1", "values": [{"measurement": "kinase still bound, per cent of control", "setting": "[1]", "value": 86, "unit": "%"}, {"measurement": "kinase still bound, per cent of control", "setting": "[2]", "value": 39, "unit": "%"}, {"measurement": "kinase still bound, per cent of control", "setting": "[3]", "value": 100, "unit": "%"}, {"measurement": "kinase still bound, per cent of control", "setting": "[4]", "value": 100, "unit": "%"}, {"measurement": "kinase still bound, per cent of control", "setting": "[5]", "value": 100, "unit": "%"}, {"measurement": "kinase still bound, per cent of control", "setting": "[6]", "value": 100, "unit": "%"}, {"measurement": "kinase still bound, per cent of control", "setting": "[7]", "value": 91, "unit": "%"}, {"measurement": "kinase still bound, per cent of control", "setting": "[8]", "value": 85, "unit": "%"}, {"measurement": "kinase still bound, per cent of control", "setting": "[9]", "value": 80, "unit": "%"}, {"measurement": "kinase still bound, per cent of control", "setting": "[10]", "value": 100, "unit": "%"}, {"measurement": "kinase still bound, per cent of control", "setting": "[11]", "value": 100, "unit": "%"}, {"measurement": "kinase still bound, per cent of control", "setting": "[12]", "value": 100, "unit": "%"}, {"measurement": "kinase still bound, per cent of control", "setting": "[13]", "value": 63, "unit": "%"}, {"measurement": "kinase still bound, per cent of control", "setting": "[14]", "value": 59, "unit": "%"}, {"measurement": "kinase still bound, per cent of control", "setting": "[15]", "value": 100, "unit": "%"}, {"measurement": "kinase still bound, per cent of control", "setting": "[16]", "value": 100, "unit": "%"}, {"measurement": "kinase still bound, per cent of control", "setting": "[17]", "value": 100, "unit": "%"}, {"measurement": "kinase still bound, per cent of control", "setting": "[18]", "value": 80, "unit": "%"}, {"measurement": "kinase still bound, per cent of control", "setting": "[19]", "value": 100, "unit": "%"}, {"measurement": "kinase still bound, per cent of control", "setting": "[20]", "value": 81, "unit": "%"}, {"measurement": "kinase still bound, per cent of control", "setting": "[21]", "value": 71, "unit": "%"}, {"measurement": "kinase still bound, per cent of control", "setting": "[22]", "value": 85, "unit": "%"}, {"measurement": "kinase still bound, per cent of control", "setting": "[23]", "value": 100, "unit": "%"}, {"measurement": "kinase still bound, per cent of control", "setting": "[24]", "value": 100, "unit": "%"}, {"measurement": "kinase still bound, per cent of control", "setting": "[25]", "value": 100, "unit": "%"}, {"measurement": "kinase still bound, per cent of control", "setting": "[26]", "value": 100, "unit": "%"}, {"measurement": "kinase still bound, per cent of control", "setting": "[27]", "value": 100, "unit": "%"}, {"measurement": "kinase still bound, per cent of control", "setting": "[28]", "value": 100, "unit": "%"}, {"measurement": "kinase still bound, per cent of control", "setting": "[29]", "value": 76, "unit": "%"}, {"measurement": "kinase still bound, per cent of control", "setting": "[30]", "value": 100, "unit": "%"}, {"measurement": "kinase still bound, per cent of control", "setting": "[31]", "value": 96, "unit": "%"}, {"measurement": "kinase still bound, per cent of control", "setting": "[32]", "value": 100, "unit": "%"}, {"measurement": "kinase still bound, per cent of control", "setting": "[33]", "value": 100, "unit": "%"}, {"measurement": "kinase still bound, per cent of control", "setting": "[34]", "value": 66, "unit": "%"}, {"measurement": "kinase still bound, per cent of control", "setting": "[35]", "value": 96, "unit": "%"}, {"measurement": "kinase still bound, per cent of control", "setting": "[36]", "value": 100, "unit": "%"}, {"measurement": "kinase still bound, per cent of control", "setting": "[37]", "value": 100, "unit": "%"}, {"measurement": "kinase still bound, per cent of control", "setting": "[38]", "value": 52, "unit": "%"}, {"measurement": "kinase still bound, per cent of control", "setting": "[39]", "value": 100, "unit": "%"}, {"measurement": "kinase still bound, per cent of control", "setting": "[40]", "value": 100, "unit": "%"}]}
